Key:
Assay type in all cases: in vivo
Poa annua (POAAN) = assay: A. Herbicidal pre-emergence efficacy, POAAN
Method in brief: (§1)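 Pre-emergence soil-surface spray in sandy loam pots, WP/EC in water plus 0.5% additive, 600 L/ha. Visual % damage rating after about 3 weeks in greenhouse vs. untreated; 0% = control-like, 100% = dead plants. Rates up to 1280 g/ha.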

Setaria viridis (SETVI) = assay: A. Herbicidal pre-emergence efficacy, SETVI
Method in brief: as §1

[1] = test system: Abutilon theophrasti (ABUTH); assay: B. Herbicidal post-emergence efficacy, ABUTH; details: rated visually after about 3 weeks
Method in brief: (§2)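 First, seeds were sown in sandy loam and grown 2 to 3 weeks under controlled greenhouse conditions. Next, foliage at the one-leaf stage received the formulated compound in water with 0.5% additive (600 L/ha, 1280 g/ha or less). Finally, damage was rated visually after about 3 weeks against untreated plants.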

[2] = test system: Digitaria sanguinalis (DIGSA); assay: B. Herbicidal post-emergence efficacy, DIGSA; details: rated visually after about 3 weeks
Method in brief: as §2

[3] = test system: Amaranthus retroflexus (AMARE); assay: B. Herbicidal post-emergence efficacy, AMARE
Method in brief: as §2

Viola tricolor (VIOTR) = assay: C. Herbicidal pre-emergence efficacy, VIOTR
Method in brief: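 Pre-emergence test: formulated compounds sprayed as aqueous suspension or emulsion with 0.5% additive at 600 l/ha onto soil covering sown seeds, at rates corresponding to 320 g/ha or less. After about 3 weeks in greenhouse, efficacy scored visually as percent versus untreated controls (100% = plants dead).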

Veronica persica (VERPE) = assay: E. Herbicidal post-emergence efficacy, VERPE
Method in brief: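 Greenhouse weeds were treated post-emergence at the one-leaf stage, 2-3 weeks after sowing in sandy loam, with WP or EC formulations sprayed as aqueous suspension/emulsion plus 0.5% additive at 600 l/ha, at 320 g/ha or less. Efficacy was rated visually after about 3 weeks versus untreated controls (100% = dead, 0% = like control).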

Compound | Pre-emergence efficacy against POAAN (Poa annua (POAAN); dosage 80 g/ha) | Pre-emergence efficacy against POAAN (Poa annua (POAAN); dosage 320 g/ha) | Pre-emergence efficacy against POAAN (Poa annua (POAAN); dosage 1280 g/ha) | Pre-emergence efficacy against SETVI (Setaria viridis (SETVI); dosage 320 g/ha) | Pre-emergence efficacy against SETVI (Setaria viridis (SETVI); dosage 1280 g/ha) | Post-emergence efficacy against ABUTH in % ([1]; 80 g/ha) | Post-emergence efficacy against ABUTH in % ([1]; 320 g/ha) | Post-emergence efficacy against ABUTH in % ([1]; 1280 g/ha) | Post-emergence efficacy against DIGSA in % ([2]; 1280 g/ha) | Post-emergence efficacy against AMARE ([3]; 80 g/ha) | Post-emergence efficacy against AMARE ([3]; 320 g/ha) | Post-emergence efficacy against AMARE ([3]; 1280 g/ha) | Pre-emergence efficacy against SETVI (Setaria viridis (SETVI); dosage 80 g/ha) | Post-emergence efficacy against DIGSA in % ([2]; 320 g/ha) | Pre-emergence efficacy against VIOTR in % (Viola tricolor (VIOTR); application rate 80 g/ha) | Pre-emergence efficacy against VIOTR in % (Viola tricolor (VIOTR); application rate 320 g/ha) | Post-emergence efficacy against VERPE in % (Veronica persica (VERPE); application rate 80 g/ha) | Post-emergence efficacy against VERPE in % (Veronica persica (VERPE); application rate 320 g/ha)
O=S(=O)(CCC(F)(F)F)Oc1c(Br)cccc1Oc1ncc(Cl)cn1 [Example I-31] | 90% | 100% | 100% | 100% | 100% | 90% | 100% | 100% | 90% | 100% | 100% | 100% | – | – | – | – | – | –
O=S(=O)(CCCC(F)(F)F)Oc1c(F)cccc1Oc1ncc(Br)cn1 [Example I-41] | 100% | 100% | 100% | 100% | 100% | – | – | – | 90% | – | 90% | 90% | 100% | 90% | 100% | 100% | 100% | 100%
CCS(=O)(=O)Oc1ccccc1Oc1ncc(Cl)cn1 [Example I-16] | – | 100% | 100% | 100% | 100% | – | 90% | 100% | 90% | 100% | 100% | 100% | – | – | – | – | – | –
O=S(=O)(CCCCl)Oc1cccc(F)c1Oc1ncc(Cl)cn1 [Example I-13] | – | 90% | 100% | – | 100% | – | – | 90% | 90% | – | 90% | 100% | – | – | – | – | – | 90%
CCCS(=O)(=O)Oc1ccccc1Oc1ncc(Cl)cn1 [Example I-3] | 90% | 100% | 100% | 100% | 100% | – | 90% | 100% | – | 90% | 100% | 100% | 100% | – | 90% | 100% | 80% | 90%
O=S(=O)(CCCCl)Oc1ccccc1Oc1ncc(F)cn1 [Example I-5] | 90% | 100% | 100% | 100% | 100% | 90% | 100% | 100% | – | 100% | 100% | 100% | 100% | – | 100% | 100% | 90% | 100%
CCCCS(=O)(=O)Oc1ccccc1Oc1ncc(Cl)cn1 [Example I-6] | – | 90% | 90% | 90% | 100% | – | 90% | 90% | – | 90% | 100% | 100% | 90% | – | 80% | 90% | 90% | 90%
O=S(=O)(CCCC(F)(F)F)Oc1ccccc1Oc1ncc(Cl)cn1 [Example I-10] | 100% | 100% | 100% | 90% | 100% | 90% | 90% | 90% | – | 90% | 90% | 100% | 90% | – | 90% | 100% | 100% | 100%
O=S(=O)(CCCCl)Oc1ccccc1Oc1ncc(Cl)cn1 [Example I-2] | 100% | 100% | 100% | 100% | 100% | 100% | 100% | 100% | – | 100% | 100% | 100% | 100% | – | 100% | 100% | 100% | 100%
O=S(=O)(CC1CC1(Cl)Cl)Oc1c(F)cccc1Oc1ncc(Cl)cn1 (centres unmarked) [Example I-57] | – | 100% | 100% | 100% | 100% | 90% | 90% | 90% | 90% | 90% | 90% | 90% | 90% | 90% | – | – | – | –

Source: US20240174618A1, “SUBSTITUTED (2-HETEROARYLOXYPHENYL)SULFONATES, SALTS THEREOF AND THEIR USE AS HERBICIDAL AGENTS” (Bayer Aktiengesellschaft, priority 2021, published 2024)
